Test results as given in patent US20150132746A1, “SAMPLING MEDIUM” (UNIVERSITY OF OSLO, priority 2012, published 2015).
Structures can show the parent of a compound that is named as a salt. Where two headings read alike, the source gives them in different places.

Key:
[1] = Long term stability of model analytes in dried oral fluid stored 30 days on alginate or chitosan foam; assay type: physicochemical, human; settings: n = 3
Excerpt: The results are shown in Tables 3 and 4 for alginate and chitosan foam, respectively. No sample loss is observed after 30 days of storage. The stability of the model analytes by storing oral fluid on alginate and chitosan foam was considered satisfactory.

[2] = whole blood 70 ng/ml on alginate foam
[3] = cited from earlier work
[4] = oral fluid on alginate foam, theoretical 100 ng/ml, stored at 4 C
[5] = oral fluid on alginate foam, theoretical 100 ng/ml, stored at 37 C
[6] = oral fluid on alginate foam, theoretical 100 ng/ml, stored at room temperature
[7] = oral fluid on alginate foam, theoretical 100 ng/ml, stored at −18 C
[8] = oral fluid on alginate foam, theoretical 500 ng/ml, stored at 4 C
[9] = oral fluid on alginate foam, theoretical 500 ng/ml, stored at 37 C
[10] = oral fluid on alginate foam, theoretical 500 ng/ml, stored at room temperature
[11] = oral fluid on alginate foam, theoretical 500 ng/ml, stored at −18 C
[12] = oral fluid on chitosan foam, theoretical 100 ng/ml, stored at 4 C
[13] = oral fluid on chitosan foam, theoretical 100 ng/ml, stored at 37 C
[14] = oral fluid on chitosan foam, theoretical 100 ng/ml, stored at room temperature
[15] = oral fluid on chitosan foam, theoretical 100 ng/ml, stored at −18 C
[16] = oral fluid on chitosan foam, theoretical 500 ng/ml, stored at 4 C
[17] = oral fluid on chitosan foam, theoretical 500 ng/ml, stored at 37 C
[18] = oral fluid on chitosan foam, theoretical 500 ng/ml, stored at room temperature
[19] = oral fluid on chitosan foam, theoretical 500 ng/ml, stored at −18 C

SMILES | Measured concentration at day 30 [1, 4] | Measured concentration at day 30 [1, 5] | Measured concentration at day 30 [1, 6] | Measured concentration at day 30 [1, 7] | Measured concentration at day 30 [1, 8] | Measured concentration at day 30 [1, 9] | Measured concentration at day 30 [1, 10] | Measured concentration at day 30 [1, 11] | Measured concentration at day 30 [1, 12] | Measured concentration at day 30 [1, 13] | Measured concentration at day 30 [1, 14] | Measured concentration at day 30 [1, 15] | Measured concentration at day 30 [1, 16] | Measured concentration at day 30 [1, 17] | Measured concentration at day 30 [1, 18] | Measured concentration at day 30 [1, 19] | Nominal concentration at day 50 ([2]; stored at 4° C.) | Nominal concentration at day 50 ([2]; stored at 37° C.) | Nominal concentration at day 50 ([2]; stored at room temperature) | Nominal concentration at day 50 ([2]; stored at −18° C.) | also measured
CO[C@@]12CC[C@@]3(C[C@@H]1[C@](C)(O)C(C)(C)C)[C@H]1Cc4ccc(O)c5c4[C@@]3(CCN1CC1CC1)[C@H]2O5.Cl [Buprenorphine, buprenorphine hydrochloride] | 101 ng/mL | 115 ng/mL | 97 ng/mL | 96 ng/mL | 790 ng/mL | 656 ng/mL | 642 ng/mL | 656 ng/mL | 105 ng/mL | 100 ng/mL | 101 ng/mL | 101 ng/mL | 569 ng/mL | 595 ng/mL | 595 ng/mL | 611 ng/mL |  |  |  |  | 
CN(C)CCCC1(c2ccc(F)cc2)OCc2cc(C#N)ccc21 (stereo not drawn) [Citalopram, citalopram hydrobromide] |  |  |  |  |  |  |  |  |  |  |  |  |  |  |  |  | 64 ng/mL | 59 ng/mL | 64 ng/mL | 72 ng/mL | 
CCC(=O)C(CC(C)N(C)C)(c1ccccc1)c1ccccc1 (stereo not drawn) [Methadone, Methadone hydrochloride] | 113 ng/mL | 117 ng/mL | 103 ng/mL | 106 ng/mL | 636 ng/mL |  | 582 ng/mL | 602 ng/mL | 115 ng/mL | 108 ng/mL | 113 ng/mL | 105 ng/mL | 564 ng/mL | 545 ng/mL | 582 ng/mL | 599 ng/mL | 63 ng/mL | 54 ng/mL | 61 ng/mL | 79 ng/mL | 
CN[C@@H](C)Cc1ccccc1 [Methamphetamine] | 107 ng/mL | 42 ng/mL | 72 ng/mL | 103 ng/mL | 645 ng/mL | 319 ng/mL | 466 ng/mL | 687 ng/mL | 126 ng/mL | 80 ng/mL | 98 ng/mL | 117 ng/mL | 744 ng/mL | 467 ng/mL | 601 ng/mL | 732 ng/mL |  |  |  |  | 
COc1ccc(CC(C)N)cc1 (stereo not drawn) [PMA, para-methoxyamphetamine] | 115 ng/mL | 53 ng/mL | 80 ng/mL | 105 ng/mL | 722 ng/mL | 406 ng/mL | 628 ng/mL | 717 ng/mL | 127 ng/mL | 131 ng/mL | 104 ng/mL | 122 ng/mL | 765 ng/mL | 648 ng/mL | 719 ng/mL | 769 ng/mL |  |  |  |  | 
CNC(C)Cc1ccc(OC)cc1 (stereo not drawn) [PMMA, para-methoxymethamphetamine] | 114 ng/mL | 76 ng/mL | 197 ng/mL | 114 ng/mL | 715 ng/mL | 475 ng/mL | 628 ng/mL | 726 ng/mL | 123 ng/mL | 112 ng/mL | 104 ng/mL | 119 ng/mL | 765 ng/mL | 623 ng/mL | 647 ng/mL | 769 ng/mL |  |  |  |  | 
CN[C@H]1CC[C@@H](c2ccc(Cl)c(Cl)c2)c2ccccc21 [Sertraline, sertraline hydrochloride] |  |  |  |  |  |  |  |  |  |  |  |  |  |  |  |  | 69 ng/mL | 61 ng/mL | 77 ng/mL | 64 ng/mL | 
N[C@H]1C(O)O[C@H](CO)[C@@H](O)[C@@H]1O (stereo partly drawn) [glucosamine] |  |  |  |  |  |  |  |  |  |  |  |  |  |  |  |  |  |  |  |  | pKa [3]: 6.3
O=C[C@H](O)[C@H](O)[C@@H](O)[C@H](O)C(=O)O [guluronic, guluronic acid] |  |  |  |  |  |  |  |  |  |  |  |  |  |  |  |  |  |  |  |  | pKa [3]: 3.65
